Laboratory results: US5985893A, “Physically stable solid form of a fluoroquinolone” (Pharmacia & Upjohn Company, priority 1996, dated 1999)
Where “and” joins values, the source holds several entries; their conditions need not be identical. Equal values may be shown once.

How the values were obtained:
Type in all cases: physicochemical
[1] = Solubility of the quinolone, Forms I and III, in ethyl acetate; settings: 20° C, two values given
Method: Bulk drug samples are prepared by dissolving the material in mobile phase at a final concentration of approximately 0.25 to 0.5 mg/ml. For solubility experiments, 100 mcl aliquots of ethyl acetate solutions are withdrawn and placed directly into HPLC autosampler vials. A gentle stream of nitrogen gas is used to evaporate the solvent in the sample vials. The solids are reconstituted with 0.5 ml of HPLC mobile phase prior to analysis.
Solubilities are measured in ethyl acetate. Five to ten milligrams of bulk drug are placed into an amber autoinjector vial, and 3.0 ml of ethyl acetate are added. The vials are capped and shaken for intervals up to 24 hours at room temperature using a Burrell model BB wrist-action shaker. Aliquots are withdrawn from the supernate after centrifugation. The final sample is taken from a quiescent solution which had not been shaken since the 24 hour timepoint.
The solubilities of Forms I and III were determined in ethyl acetate at room temperature; the solubility data for each form was gathered simultaneously, to assure that each form's solubility was measured under identical conditions. Ethyl acetate was employed as an aprotic solvent yielding fairly low equilibrium solubilities of the quinolone; ethyl acetate has been used to evaluate the difference in free energy of polymorphic forms of an antinociceptive drug, as described by K. Raghavan et al., J. Pharm. Biomed. Anal. Vol.12 (6), pp. 777-785 (1994). Under the assumption that the solubilities in TABLE S are consistent with the dilute solution limit, we can use the following expression to calculate the difference in Gibbs free energy between Form I and Form III: [formula] where "sx " is the solubility of Form x in a sufficiently dilute solution, R is the gas constant, and T is the absolute temperature. Using the data in Table 1, we find that the Gibbs free energy of Form III is lower than that of Form I by 7.7±0.2 kJ/mole.

[2] = Isothermal calorimetry (ITC) of Form I to Form III conversion
Method: Isothermal calorimetry (ITC) experiments are conducted using a model 2277 microcalorimeter made by ThermoMetric (see Suurkuusk, J.:Wadso, I. Chem. Scr. (1982) Vol. 20 pp. 155-163). The Digitam® version 2.1 software from Thermometric is used to display the data and to integrate the total heat obtained from the samples. Heat flow is monitored as a function of time at 60° C. and at 40° C. Both glass and stainless steel ampules are used to hold the solid samples and the reference material (quartz sand). Samples are thermally equilibrated for a period ranging from 15 minutes (glass ampules) to 1 hour (stainless steel ampules) prior to recording thermal data. The weight of the samples ranged from about 75 to 300 mg. Samples in glass ampules are equilibrated via the isopiestic method at 53% or 75% RH in chambers containing saturated solutions of sodium chloride or calcium nitrate tetrahydrate. The ampules are capped immediately after removing the samples. Other samples are equilibrated using "microhygrostats" containing small quantities of saturated salt solutions which are sealed within the ampules. This arrangement provided for nearly constant relative humidity as the crystal conversion proceeded.
We therefore studied the transformation of samples after equilibration at […] and 75% RH. […] HPLC analysis of the reaction product confirmed that the 60° C. ITC profiles contained negligible contributions from chemical decomposition.
A detailed explanation of FIG. 9 follows. […] Trace (a) is recorded from a sample of Form I equilibrated to 75% relative humidity before sealing the sample container and exposing it to the 60° C. conditions in the calorimeter. Trace (b) is recorded for a sample of Form I at 60° C., but a 75% relative humidity "microhygrostat" is placed in the sample container just prior to recording the data. The conversion is delayed from that of trace (a) due to the fact that the water must be transported from the microhygrostat to the Form I crystals during the experiment. Trace (c) is recorded for a sample of Form I at 60° C., but the sample was equilibrated at 53% relative humidity prior to sealing the sample container.
This trace results from placing a 75% relative humidity microhygrostat into the sample container just prior to recording the data. The sample is held at 40° C. in the calorimeter; the heat flow results as the Form I material converts to Form III.

[3] = DSC and thermomicroscopy of solid-state transformations
Method: A Nikon POH-2 polarized light compound microscope with 10× objective is employed to view specimens mounted dry between a glass microscope slide and a no. 11/2 Cover slip. The samples are heated from ambient through 250° C. in a Mettler FP-80 microfurnace controlled by a Mettler FP-8 microprocessor. The heating rates may vary from 5-20° C./minute. The hot-stage experiments may be videotaped (Sony T120-HG and PM VHS tape) with a Hitachi VK-C350 Color Video Camera and a Panasonic AG-6200 Video Cassette Recorder.
Differential scanning calorimetry (DSC) is used to monitor enthalpy changes as a function of temperature during a linear temperature increase. A DuPont 910 DSC interfaced to a TA Instruments TA2100 computer may be used. The scan rate is 5° C./minute, and the instrument is operated with a 50-80 cc/min dry nitrogen purge. Samples are encapsulated in hermetically sealed aluminum sample pans with a pressure rating of about 2 bar. In some experiments, the lids of the pans are perforated to permit the passage of moisture and other volatile components.
Because calorimetric samples are occasionally affected by residual moisture, samples are sometimes studied with different initial water activities. Samples are weighed into tared DSC pans, and the open pans are permitted to equilibrate for several days in chambers of constant relative humidity at 25±1° C. These chambers are prepared from saturated salt solutions at 53% RH and 75% RH. At the end of the equilibration period, the chambers are opened, and the lids are placed over the samples to prevent re-equilibration with the ambient atmosphere. The samples are removed from the chambers, and the pans are quickly crimped closed.
Detailed description of FIG. 8. […] The heating rate is 5° C./minute. (a.) The sample is encapsulated in a standard DSC pan. (b.) The sample is encapsulated in a hermetically sealed DSC pan. The profiles are offset along the ordinate axis for comparison.
Detailed description of FIG. 10. […] The heating rate was 5° C./minute. (a.) The sample was equilibrated at 53% RH and encapsulated in a standard DSC pan. (b.)The sample was equilibrated at 53% RH and encapsulated in a hermetically sealed DSC pan. (c.) The sample was equilibrated at 75% RH and encapsulated in a hermetically sealed DSC pan. The profiles were offset along the ordinate axis for comparison.

[4] = Stability of the solid forms to phase transformation (overall finding); settings: variety of conditions

CN[C@@H](C)[C@@H]1CCN(c2c(F)cc3c(=O)c(C(=O)O)cn(C4CC4)c3c2OC)C1 [Form I, [S-(R*,S*)]-1-cyclopropyl-6-fluoro-1,4-dihydro-8-methoxy-7-[3-[1-(methylamino)ethyl]-1-pyrrolidinyl]-4-oxo-3-quinolinecarboxylic acid]
Solubility, concentration ([1]; 1 hour, 60 min): 2890 µg/mL and 2780 µg/mL
Solubility, concentration ([1]; 2 hours, 120 min): 2180 µg/mL and 2990 µg/mL
Solubility, concentration ([1]; 4.5 hours, 270 min): 3010 µg/mL and 3110 µg/mL
Solubility, concentration ([1]; 18 hours, 1080 min): 3020 µg/mL and 3080 µg/mL
Solubility, concentration ([1]; 24 hours, 1440 min): 3240 µg/mL and 3320 µg/mL
Solubility, concentration ([1]; 67.5 hours (not shaken after 24 hours), 4050 min): 3220 µg/mL and 3240 µg/mL
Conversion exotherm, beginning ([2]; 40° C, 75% RH microhygrostat): about 6 hours
Conversion exotherm, end ([2]; 40° C, 75% RH microhygrostat): about 50 hours
Rate of conversion Form I to Form III, dependence on humidity ([2]; 60° C, 51% vs 75% RH): slower at 51% RH than at 75% RH by about two orders of magnitude
Integrated enthalpy change, low moisture sample ([2]; 60° C, after 80 hours, mixture of Forms I and III): about 10 J/g
Final state of high moisture sample (in words) ([2]; 60° C, equilibrated at 75% RH, by XRD and DSC): converted completely to Form III
Conversion of Form I to Form III under dry conditions (in words) ([2]; > 7 days at 40° C./50% RH or 5 days at 60° C.): did not convert to Form III under dry conditions, even after greater than 7 days at 40° C./50% RH or after 5 days at 60 °C
Initial water content of Form I sample ([2]; before ITC at 40° C): 0.54%
Conversion of Form I to Form III (in words) ([2]; equilibrated at 75% RH, 60° C): convert completely to Form III in less than one day at 60 °C
Conversion of Form I to Form III (in words) ([2]; initial water activity at least 53% RH): direct conversion of Form I to Form III occurs without the formation of Form II
Lowest temperature at which conversion of Form I to Form III was observed ([2]; microcalorimeter): 40 °C
DSC first merged endotherm/exotherm (melt/recrystallization) ([3]; FIG. 8, 5° C./minute): 140-150 °C
DSC second merged endotherm/exotherm (melt/recrystallization) ([3]; FIG. 8, 5° C./minute): 165-180 °C
DSC melt/recrystallization range, probably direct Form I to Form III ([3]; equilibrated at 53% RH, hermetically sealed pan): 140-150 °C
DSC exotherm prior to Form III melt ([3]; equilibrated at 75% RH, hermetically sealed pan): about 130 °C
Temperature of Form I to Form II transformation ([3]; slow heating/ thermomicroscopy melt/recrystallization): 140-151 °C and 143-151 °C
Stability to transformation (in words) [4]: undergo phase transformations under a variety of conditions
